Measured values taken from paper PMC6930600, “Synthesis of Aryl Propionamide Scaffold Containing a Pentafluorosulfanyl Moiety as SARMs” (Molecules, 2019).

Target: T1, androgen receptor (AR) (Homo sapiens, UniProt P10275)
T1 construct: AR expressed transiently from plasmid pSVAR0 (known as a human full-length AR expression vector)
T1 sequence (P10275 1-920): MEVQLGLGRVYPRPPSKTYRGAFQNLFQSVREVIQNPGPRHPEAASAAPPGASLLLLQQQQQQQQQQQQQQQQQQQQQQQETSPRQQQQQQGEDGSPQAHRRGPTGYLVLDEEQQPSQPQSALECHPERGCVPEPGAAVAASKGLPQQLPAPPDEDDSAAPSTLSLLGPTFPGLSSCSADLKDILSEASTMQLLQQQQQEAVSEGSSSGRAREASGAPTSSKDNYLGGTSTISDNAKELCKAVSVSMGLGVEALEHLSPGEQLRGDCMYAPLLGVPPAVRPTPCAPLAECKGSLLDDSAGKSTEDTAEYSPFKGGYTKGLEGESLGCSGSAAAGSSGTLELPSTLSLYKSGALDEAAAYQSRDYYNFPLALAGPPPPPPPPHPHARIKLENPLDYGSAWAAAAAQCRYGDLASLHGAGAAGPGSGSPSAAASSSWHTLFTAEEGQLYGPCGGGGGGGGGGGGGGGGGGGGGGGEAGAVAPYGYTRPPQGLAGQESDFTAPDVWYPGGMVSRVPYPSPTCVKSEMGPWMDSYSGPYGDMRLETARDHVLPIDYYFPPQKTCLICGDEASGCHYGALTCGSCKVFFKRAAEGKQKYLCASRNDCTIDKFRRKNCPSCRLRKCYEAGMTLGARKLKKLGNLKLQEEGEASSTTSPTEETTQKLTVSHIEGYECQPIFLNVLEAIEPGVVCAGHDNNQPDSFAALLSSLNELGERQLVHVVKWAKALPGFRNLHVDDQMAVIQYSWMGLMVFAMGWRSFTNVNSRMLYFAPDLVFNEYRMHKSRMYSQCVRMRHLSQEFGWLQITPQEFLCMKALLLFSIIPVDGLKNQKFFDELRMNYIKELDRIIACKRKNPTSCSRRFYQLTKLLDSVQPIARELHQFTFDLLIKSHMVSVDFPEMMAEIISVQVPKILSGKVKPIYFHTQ
Assay: MMTV-luciferase reporter gene agonist assay, transfected CV-1 cells
Type: cell-based
Conditions: agonist mode, […] h, […] °C
Excerpt: MMTV-luciferase reporter gene agonist assay, transfected CV-1 cells on androgen receptor (AR)

| SMILES | Agonist activity in CV-1 / EC50 (unreliable) | Agonist activity in CV-1 / EC50 (unreliable (above top tested concentration […])) |
| --- | --- | --- |
| C[C@](O)(COc1ccc(Cl)cc1)C(=O)Nc1cccc(S(F)(F)(F)(F)F)c1 [12c, (S)-3-(4-chlorophenoxy)-2-hydroxy-2-methyl-N-(3-(pentafluoro-l6-sulfanyl)phenyl)propanamide] | 1282 ± 79.2 nM | – |
| COc1ccc(OC[C@](C)(O)C(=O)Nc2ccc(S(F)(F)(F)(F)F)cc2)c(F)c1 [16g, (S)-3-(2-fluoro-4-methoxyphenoxy)-2-hydroxy-2-methyl-N-(4-(pentafluorosulfanyl)phenyl)propanamide] | 2144.0 ± 694.4 nM | – |
| C[C@](O)(COc1ccc(F)cc1)C(=O)Nc1cccc(S(F)(F)(F)(F)F)c1 [12b, (S)-3-(4-fluorophenoxy)-2-hydroxy-2-methyl-N-(3-(pentafluoro-l6-sulfanyl)phenyl)propanamide] | – | 51213.5 ± 5806.1 nM |
| CCC(=O)c1ccc(OC[C@](C)(O)C(=O)Nc2cccc(S(F)(F)(F)(F)F)c2)cc1 [12f, (S)-2-hydroxy-2-methyl-N-(3-(pentafluoro-l6-sulfanyl)phenyl)-3-(4-propionylphenoxy)propanamide] | 12733.5 ± 2144.7 nM | – |
| C[C@](O)(COc1ccc(C#N)cc1)C(=O)Nc1cccc(S(F)(F)(F)(F)F)c1 [12a, (S)-3-(4-cyanophenoxy)-2-hydroxy-2-methyl-N-(3-(pentafluoro-l6-sulfanyl)phenyl)propanamide] | 1508 ± 429.9 nM | – |
